For assay [1], the system named is T1, LXR.
T1 construct: fused on or other part: GST fused to the LBD in the FRET assay
The assay is described as follows: Measured EC50 or IC50 for LXR (LXRα and/or LXRβ; assay and subtype not given). To be noted: IC50 or EC50 class, subtype not specified. On the procedure: (§1) Measured EC50 or IC50 for LXR, and FXR for Compounds of the Invention
(§2) LXR and FXR activities for various compounds of the invention are presented in the following table; those compounds with EC50 or IC50 values <10 μM for at least one of LXRα, LXRβ or FXR are considered to be active. In the following Table, IC50 or EC50 data is represented as follows: A<1 μM, B=1-10 μm, and C>10 μM.

For assay [2], the target named is T2, FXR (Homo sapiens, UniProt Q96RI1).
T2 sequence (Q96RI1 1-472 isoform Q96RI1-2): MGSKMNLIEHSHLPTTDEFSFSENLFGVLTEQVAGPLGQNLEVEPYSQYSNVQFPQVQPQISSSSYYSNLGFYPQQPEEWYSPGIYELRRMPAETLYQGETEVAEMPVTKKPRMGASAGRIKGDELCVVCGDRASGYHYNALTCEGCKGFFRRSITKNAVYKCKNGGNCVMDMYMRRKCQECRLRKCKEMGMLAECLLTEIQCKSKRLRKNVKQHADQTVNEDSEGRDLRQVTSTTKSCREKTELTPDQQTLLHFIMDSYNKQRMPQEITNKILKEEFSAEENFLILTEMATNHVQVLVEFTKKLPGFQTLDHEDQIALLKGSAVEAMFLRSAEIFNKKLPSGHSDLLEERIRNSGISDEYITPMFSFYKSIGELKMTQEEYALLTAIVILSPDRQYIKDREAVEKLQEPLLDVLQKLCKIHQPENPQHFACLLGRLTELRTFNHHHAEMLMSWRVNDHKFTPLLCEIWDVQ
The assay is described as follows: Measured EC50 or IC50 for FXR (assay not given). To be noted: IC50 or EC50 class; assay not specified. As to the method:
as §1, §2

Where only a bound is given, the exact number is not on record here.

One may read the EC50 as the concentration at which the effect is half-maximal. A high value points to a need for much substance.

As to `Cc1cc(-n2nc(C(C)(C)O)c(Cl)c2-c2c(F)cccc2Cl)ccc1-c1cccc(S(C)(=O)=O)c1` [Example 971, 2-{4-chloro-4-(2-chloro-6-fluoropehnyl)-1-[2-methyl-3′-(methylsulfonyl)biphenyl-4-yl]-1H-pyrazol-3-yl}propan-2-ol], the EC50 in assay [1] was less than 1000 nM; in assay [2], 1 to 10 µM.
For `Cc1cc(-n2nc(C(C)(C)O)c(Cl)c2-c2c(Cl)cccc2Cl)ccc1-c1cccc(S(C)(=O)=O)c1` [Example 972, 2-{4-chloro-5-(2,6-dichlorophenyl)-1-[2-methyl-3′-(methylsulfonyl)biphenyl-4-yl]-1H-pyrazol-3-yl}propan-2-ol], the EC50 in assay [1] fell in the range of 1000 to 10000 nM; in assay [2] it was 1 to 10 µM.

Source of the values: patent publication US7998995B2 (Exelixis Patent Company LLC, priority 2006, dated 2011).
